From the NIST ThermoML archive (doi:10.1021/acs.jced.6b00290)
± gives the expanded uncertainty stated by the source.

Experiment: refractive index (Na D-line) (dimensionless); wn = mass fraction of the nth substance listed
Details: 333.15 K, 100 kPa, Liquid, Standard Abbe refractometry

| refractive index (w1 = 0.3525) | refractive index (w1 = 0.5241) | Compound |
| --- | --- | --- |
| 1.3957 ± 0.0004 | – | O=S(=O)([O-])[O-].[Mg+2] [magnesium sulfate] + O |
| – | 1.4594 ± 0.0004 | [Br-].[Br-].[Mg+2] [magnesium bromide (MgBr2)] + O |
